This assay has as its system mice initiated with morphine. In words: Anti-opioid addiction effectiveness test of grouped herbal compounds in mice. The class given is in vivo. The protocol: Mice will be initiated with morphine at 1 mg/ml for 21 days.
The second test: use separate groups of compounds to test effectiveness in mice. The definition of effective.
1. Ten Mice in Each Group.

With `CN1CC[C@]23c4c5ccc(O)c4O[C@H]2[C@@H](O)C=C[C@H]3[C@H]1C5` [Morphine], the Effective result reads like this: (3rd test, regrouped compounds of groups 2 and 9) “Yes”; (second test, ten mice in each group, mice initiated with morphine at 1 mg/ml for 21 days) “Yes”.

The values are drawn from patent US20190314431A1, “Method of Discovery of Potential Bioactive Compounds in Herbals by Regrouping after Chromatography” (priority 2018, published 2019).
